Tests used:
BLECs [1] = experiment: Western immunoblotting of proinflammatory markers (ICAM-1, VCAM-1, NLRP3) in BLECs; type: cell-based, human; details: for protein levels of ICAM-1, VCAM-1 and NLRP3 versus untreated BLECs: 10 ng·mL^−1, 24 h
Protocol: Next, as the inflammatory response of endothelial cells is largely dependent on appropriate upregulation of adhesion molecules, such as intercellular adhesion molecule-1 (ICAM-1) and vascular cell adhesion molecule-1 (VCAM-1), and the inflammasome molecule NOD-like receptor family, pyrin domain containing 3 (NLRP3), we evaluated, by Western immunoblotting, the ability of BLECs to respond to these pro-inflammatory stimuli.
(§1) Each condition was studied in triplicate.
(§2) After 24 h of treatments with or without proinflammatory cytokines, BLECs were washed twice with cold RH buffer and scraped with 70 μL of RIPA 1X lysis buffer (10 mM Tris-Cl (pH 8.0), 1 mM EDTA, 0.5 mM EGTA, 1% Triton X-100, 0.1% sodium deoxycholate, 0.1% SDS, 140 mM NaCl) (Merck Millipore, Burlington, MA, USA) or UT4 lysis buffer (7M Urea, 2M Thiourea, 4% CHAPS), both supplemented with a cocktail of phosphatase and protease inhibitors (1% protease inhibitors cocktail #P8340; 1% phosphatase inhibitors cocktail 1 P2850; 1% phosphatase inhibitors cocktail 2 #P5726; 1% protease inhibitors cocktail #P8340) purchased from Sigma-Aldrich (Lyon, France). Then, a centrifugation at 10,000 rpm for 10 min at 4 °C was achieved to save the supernatant of the lysate. This was later sonicated two times for 5 s on ice. The concentration of the protein lysate was quantified using the Bradford method (#5000006; rad, Munich, Germany). The protein samples were then stored at −20 °C.
(§3) 20 μg of total protein was mixed with Laemmli 4X (#1610747; Biorad, Munich, Germany) supplemented with β-mercaptoethanol (Sigma-Aldrich, Germany). Depending on the protein target, details of the denaturation and reduction steps of the protein extract are described in Table 3. Then, the protein mixes were electrophoresed using Criterion™ TGX™ (Tris-Glycine eXtended) precast gels (Biorad, Munich, Germany) and subsequently electrotransferred to nitro-cellulose membranes (GE Healthcare, Munich, Germany). Once the previous step was completed, Tris-buffered saline 0.1% Tween 20 (TBST; 20 mM Tris-HCl, pH 8.0, 500 mM NaCl, 0.1% Tween 20) supplemented with 5% skimmed milk was added on membrane to block nonspecific binding sites for 1 h under agitation at RT. Membranes were incubated in the appropriate primary antibodies (as described in Table 3) and incubated at 4 °C overnight, except β-actin (20 min at RT).
(§4) The following morning, the membranes were rinsed with TBST three times for 5 min each under agitation, and then incubated with the horseradish peroxidase-conjugated secondary antibody anti-rabbit (1:8000, Dako/Agilent Technologies, Inc., Santa Clara, CA, USA) or secondary antibody anti-mouse (1:5000, Dako/Agilent Technologies, Inc., Santa Clara, CA, USA) for 1 h at RT. […] Quantification of the relative densities of bands was performed with TotalLab TL 100 1D Gel Analysis software (Nonlinear Dynamics, Newcastle, UK). The protein expression normalization was conducted with anti-β-actin. Studies were performed with at least three independent experiments, with at least two Western immunoblottings per experiment.

BLECs [2] = experiment: Immunostaining of tight junction proteins in BLECs (localization, area fraction staining); type: cell-based, human; details: 10 ng·mL^−1, 24 h; for BLEC morphology and TJ protein localization: immunofluorescence of ZO-1, occludin, claudin-3, claudin-5
Protocol: After 24 h of treatment with or without proinflammatory cytokines, BLECs were fixed and permeabilized, as described in Table 1. Then, a blocking step was performed with Sea Block Blocking Buffer (#37527 from Thermofisher, Rockford, IL, USA) for 30 min. BLECs were incubated for 1 h with the primary antibody in phosphate buffered saline, calcium-magnesium-free (PBS-CMF; 0.2 g·L^−1 KH2PO4, 8.0 g·L^−1 NaCl, 2.87 g·L^−1 Na2HPO4–12H2O, and 0.2 g·L^−1 KCl) with 2% (v/v) normal goat serum (NGS) at room temperature (RT) against targeted proteins, as described in Table 1.
After three washes with PBS-CMF supplemented with 2% NGS, BLECs were incubated with secondary polyclonal antibody (goat anti-rabbit Alexa 568, A11036, Molecular Probes, Eugene, OR, USA) diluted 1:500 in PBS-CMF supplemented with 2% NGS in the dark for 30 min at RT. Then, ProLong™ Diamond Antifade Mountant with DAPI (#P36962, Invitrogen) was used for nuclei staining and mounting. The stained slides were conserved in the fridge. The staining images were taken using a Leica microscope (DMRD; Leica Microsystems, Wetzlar, Germany) and processed using ImageJ software.
Claudin-3 and claudin-5 area fraction staining were subsequently quantified within the BLECs using ImageJ software. Staining images from the same experiment were taken with the same threshold according to the staining, and could thus be compared with each other. Due to the absence of BLEC delineation, the total fraction area staining for each image was thus quantified and normalized by the number of nuclei. Studies were performed with at least three independent experiments and at least three randomized staining images per experiment containing around 50 BLECs each.

BLECs [3] = experiment: Western immunoblotting of junctional proteins in BLECs; type: cell-based, human; details: 10 ng·mL^−1, 24 h
Protocol: as §1, §2, §3, §4

BLECs [4] = details: MTT assay; 10 ng·mL^−1, 24 h, abluminal compartment
Protocol: An MTT assay was performed as a preliminary test to determine their effect on BLEC viability and to validate the chosen concentrations. Dimethyl sulfoxide (DMSO) at 10% (v/v) was used as a positive control of cell toxicity.
After 6 days of coculture, TNF-α or IL-1β were added to the basolateral compartment (brain side) at 10 ng·mL^−1 for 24 h, at 37 °C and 5% CO2, to mimic CNS inflammation condition. Each condition was studied in triplicate.
The standard MTT [3-(4,5-dimethylthiazol-2-yl)-2,5-diphenyltetrazolium bromide] assay (AR1156, Boster Biological Technology, Pleasanton, CA, USA) was performed to determine BLEC viability. Briefly, after coculture treatments, culture medium was removed and replaced with worm Ringer-Hepes (RH; 150 mM NaCl, 5.2 mM KCl, 2.2 mM CaCl2, 0.2 mM MgCl2–6H2O, 6 mM NaHCO3, 5 mM HEPES, 2.8 mM glucose; pH: 7.4) in basolateral compartment and with MTT solution (0.5 mg·mL^−1) in RH at in the opposite compartment for 3 h at 37 °C and 5% CO2. […] Aliquot was sampled in 96-well plate and the optical density (OD) was measured with a microplate reader (Synergy H1, BioTek. Colmar, France) at the wavelength of 570 and 630 nm. The percentage of relative cell viability compared to the control condition was subsequently determined using the following formula: % relative cell viability = ((OD570 − OD630) condition)/((OD570 – OD630)control) × 100.

[5] = both cytokines 10 ng·mL^−1, 24 h, normalized to β-actin
[6] = immunofluorescence, ImageJ, normalized by number of nuclei

tumor necrosis factor-α [TNF-α]
protein levels of ICAM-1, VCAM-1 and NLRP3 versus untreated BLECs (BLECs [1]): significantly higher | ICAM-1 protein level higher after TNF-α compared to IL-1β (BLECs [1]; [5]): 22.2% | NLRP3 protein level higher after TNF-α compared to IL-1β (BLECs [1]; [5]): 478.4% | VCAM-1 protein level higher after TNF-α compared to IL-1β (BLECs [1]; [5]): 230.6% | BLEC morphology and TJ protein localization (BLECs [2]): induces a change in BLEC morphology and an increase of claudin-3 and claudin-5 cytoplasmic staining | increase of claudin-5 area fraction staining compared to IL-1β treatment (BLECs [2]; [6]): 162.1% | increase of claudin-5 area fraction staining compared to control condition (BLECs [2]; [6]): 161.8% | claudin-3 area fraction staining, increase compared to IL-1β treatment (BLECs [2]; immunofluorescence, ImageJ, normalized by number of nuclei, printed as 'at'): 129.8% | VE-cadherin protein level versus control (BLECs [3]; normalized to β-actin): not significantly different | ZO-1 protein level versus control (BLECs [3]; normalized to β-actin): not significantly different | decrease of claudin-3 protein level compared to control (BLECs [3]; normalized to β-actin): 57.3% | decrease of occludin protein level compared to control (BLECs [3]; normalized to β-actin): 38.1% | decrease of tricellulin protein level compared to control (BLECs [3]; normalized to β-actin): 50.9% | increase of Claudin-5 protein expression compared to control (BLECs [3]; normalized to β-actin): 40.2%

interleukin-1β [IL-1β]
protein levels of ICAM-1, VCAM-1 and NLRP3 versus untreated BLECs (BLECs [1]): significantly higher | BLEC morphology and TJ protein localization (BLECs [2]): did not cause changes in BLEC morphology and TJ protein localization | effect on BLEC viability (BLECs [4]): did not affect BLEC viability | Claudin-5 protein levels versus control (BLECs [3]): not reflected by a change in Claudin-5 protein levels | decrease of ZO-1 protein expression compared to control (BLECs [3]; normalized to β-actin): 26.4% | decrease of claudin-3 protein level compared to control (BLECs [3]; normalized to β-actin): 73.1% | decrease of occludin protein level compared to control (BLECs [3]; normalized to β-actin): 33.5% | decrease of tricellulin protein level compared to control (BLECs [3]; normalized to β-actin): 51.0%

From paper PMC9499506, “TNF-α and IL-1β Modulate Blood-Brain Barrier Permeability and Decrease Amyloid-β Peptide Efflux in a Human Blood-Brain Barrier Model” (International Journal of Molecular Sciences, 2022)
